Data published in publication doi:10.1101/2024.08.25.609621 (bioRxiv, 2024).
Several values for one entry are separate records, joined by “and”; a condition that tells them apart may be missing. Identical values can stand only once. Like-named read-outs stand apart in the source and are kept apart here.

Columns and labels:
[1] = biological target: SARS-CoV-2 NSP3 macrodomain (Mac1) (Severe acute respiratory syndrome coronavirus 2, UniProt P0DTD1); experiment: biochemical; type: binding
[2] = biological target: SARS-CoV-2 NSP3 macrodomain (Mac1), P43 crystal form (Severe acute respiratory syndrome coronavirus 2, UniProt P0DTD1); type: binding
[3] = Single dose, concentration 200 μM, read-out: SARS CoV-2 macrodomain HTRF assay: Average % competition
[4] = preliminary screen, compound at 200 μM, mean of 3-4 technical replicates, read-out: % competition in HTRF assay
[5] = ligand modeling in Mac1 crystal soak
[6] = SARS CoV-2 macrodomain HTRF assay
[7] = SARS CoV-2 macrodomain HTRF assay, dose-response, read-out: Ki
[8] = soak concentration 10 mM, DMSO background map
[9] = stereoisomer(s) of ligand modeled in Mac1 crystal structure
[10] = dose-response, read-out: SARS CoV-2 macrodomain HTRF assay: IC50
[11] = dose-response, read-out: SARS CoV-2 macrodomain HTRF assay: Ki
[12] = from SARS CoV-2 macrodomain HTRF assay
[13] = ligand modeling in Mac1 crystal structure
[14] = stereoisomer(s) modeled in Mac1 crystal structure
[15] = Single dose, concentration 200 μM, read-out: Average % competition

Structure (SMILES)	inhibition at 200 µM [1, 4] [%]	Number of isomers bound [2, 5]	inhibition at 200 µM [1, 15] [%]	PanDDA run, TFA/DMSO background map: 1-BDC ([2]; crystal soak 10 mM)	PanDDA run, TFA/DMSO background map: Hit ([2]; crystal soak 10 mM)	further results
OCC1CC2(CCCCC2)CN1c1ncnc2[nH]ccc12 (stereo not drawn) [AVI-3727]	67	1	–	–	–	inhibition at 200 µM [1, 3]: 67%; PanDDA run, TFA/DMSO background map: 1-BDC ([2]; soak concentration 10 mM): 0.25; PanDDA run, TFA/DMSO background map: Hit ([2]; soak concentration 10 mM): TRUE
Cc1c[nH]c2ncnc(NCC3(O)CCC3)c12 [AVI-3571, 1-(((5-methyl-7H-pyrrolo[2,3-d]pyrimidin-4-yl)amino)methyl)cyclobutan-1-ol]	–	1	–	–	–	Hill slope ([1]; HTRF dose-response fit, Mac1): 1.0; Ligand efficiency (binding enery per heavy atom) [1, 6]: 0.39; Hill slope ([1]; SARS CoV-2 macrodomain HTRF assay, dose-response): 1.0; IC50 ([1]; SARS CoV-2 macrodomain HTRF assay, dose-response, read-out: IC50): 15 µM; Ki [1, 7]: 14 µM; 1-BDC ([2]; PanDDA background density correction): 0.15; X-ray crystal structure ([2]; X-ray crystal structure determined (TRUE)): TRUE; Pandda run, overall: Modeled ([2]; crystal soak, soak concentration 10 mM): TRUE; Pandda run, overall: Hit ([2]; crystal soak, soak concentration 10 mM, TRUE = ligand hit): TRUE; Total number of conformations ([2]; ligand conformations modeled in Mac1 crystal structure): 2; 2*(1-BDC) (%) ([2]; occupancy estimate from PanDDA 1-BDC): 30%; Binding site ([2]; site of ligand in X-ray crystal structure): Adenosine; PanDDA run, DMSO background map: 1-BDC [2, 8]: 0.15 and 0.2; PanDDA run, DMSO background map: Hit [2, 8]: TRUE; Isomers modeled [2, 9]: achiral,achiral
OCC1COCCN1c1ncnc2[nH]ccc12 (stereo not drawn) [AVI-3717]	62	2	–	–	–	inhibition at 200 µM [1, 3]: 62%; Isomers modeled [2, 9]: R,S
CC(C)(O)C1N(c2ncnc3[nH]ccc23)CCC1(C)C (stereo not drawn) [AVI-4126]	–	–	–	–	–	IC50 [1, 10]: 100 µM; Ki [1, 11]: 93 µM; Ligand efficiency (binding enery per heavy atom) [1, 12]: 0.28; Number of isomers bound [2, 13]: 2; Isomers modeled [2, 14]: R,S
O=C1CCc2cc(C(=O)N3CC(C(=O)O)CCC34CCCC4)c(F)cc2N1 (stereo not drawn) [AVI-338]	–	–	–	–	–	IC50 ([1]; Dose-response, SARS CoV-2 macrodomain HTRF assay, read-out: IC50): 800 µM; Ligand efficiency (binding enery per heavy atom) [1, 6]: 0.16; Ki ([1]; SARS CoV-2 macrodomain HTRF assay, read-out: Ki): 740 µM; Number of isomers bound [2, 13]: 1
OCC(Nc1ncnc2[nH]ccc12)C1CCc2ccccc21 (stereo not drawn) [AVI-3693]	78	2	78	–	–	Isomers modeled [2, 9]: RR,SR
CCC(Nc1ncnc2[nH]ccc12)C(C)(C)O (stereo not drawn) [AVI-3667]	51	1	51	0.07	TRUE	–
CC(C)(C)[C@@H]1CCN(c2ncnc3[nH]ccc23)[C@H](CO)C1 [AVI-3722]	22	1	–	–	–	inhibition at 200 µM [1, 3]: 22%
OCC(CC1CCOC1)Nc1ncnc2[nH]ccc12 (stereo not drawn) [AVI-3665]	11	1	11	0.15	TRUE	–
OCC(Nc1ncnc2[nH]ccc12)c1ccco1 (stereo not drawn) [AVI-3659]	55	1	55	0.08	TRUE	–
Cn1cc(CC(CO)Nc2ncnc3[nH]ccc23)cn1 (stereo not drawn) [AVI-3657]	24	1	24	0.09	TRUE	–
Cc1ccccc1CC(CO)Nc1ncnc2[nH]ccc12 (stereo not drawn) [AVI-3674]	–	1	32	0.15	TRUE	–
CCC(CO)Nc1ncnc2[nH]ccc12 (stereo not drawn) [AVI-3643]	63	1	63	0.14	TRUE	–
OCC(Nc1ncnc2[nH]ccc12)C1CCCC1 (stereo not drawn) [AVI-3649]	68	1	68	0.11	TRUE	–
OC1(CNc2ncnc3[nH]ccc23)CCCCC1 [AVI-6217]	–	–	–	–	–	IC50 [1, 10]: 42 µM; Ki [1, 11]: 39 µM; Ligand efficiency (binding enery per heavy atom) [1, 12]: 0.34; Number of isomers bound [2, 13]: 1; Isomers modeled [2, 14]: achiral
CNc1ccc(NS(=O)(=O)c2cc3cccc(C)c3s2)cn1 [AVI-345]	18	–	–	–	–	inhibition at 200 µM ([1]; Single dose, 200 μM, mean of three technical replicates, read-out: Average % competition): 18%; Number of isomers bound [2, 13]: 1; Isomers modeled [2, 14]: achiral
OCCC(CO)Nc1ncnc2[nH]ccc12 (stereo not drawn) [AVI-3734]	–	1	–	–	–	Ligand efficiency (binding enery per heavy atom) [1, 6]: 0.37; Ki [1, 7]: 48 µM; IC50 ([1]; read-out: HTRF IC50): 52 µM
C[C@@H]1CCN(c2ncnc3[nH]ccc23)[C@H](CO)C1 (racemic) [AVI-4064]	–	–	–	–	–	IC50 [1, 10]: 100 µM; Ki [1, 11]: 93 µM; Ligand efficiency (binding enery per heavy atom) [1, 12]: 0.31; Number of isomers bound [2, 13]: 2; Isomers modeled [2, 14]: RS,SR
OC[C@@H]1C[C@H](O)CN1c1ncnc2[nH]ccc12 [AVI-610]	–	1	–	–	–	IC50 [1, 10]: 160 µM; Ki [1, 11]: 150 µM; Ligand efficiency (binding enery per heavy atom) [1, 12]: 0.31
OCC(CC1CCCO1)Nc1ncnc2[nH]ccc12 (stereo not drawn) [AVI-3660]	18	1	18	0.17	TRUE	–
CC(C)(O)C1C2CCC2CN1c1ncnc2[nH]ccc12 (stereo not drawn) [AVI-4128]	–	–	–	–	–	Ki [1, 11]: 22 µM; Ligand efficiency (binding enery per heavy atom) [1, 12]: 0.32; IC50 ([1]; read-out: HTRF IC50): 24 µM; Number of isomers bound [2, 13]: 1; Isomers modeled [2, 14]: SRR
OCC(CC1CC1)Nc1ncnc2[nH]ccc12 (stereo not drawn) [AVI-3662]	44	1	44	0.09	TRUE	–
OCC(Nc1ncnc2[nH]ccc12)c1ccccc1 (stereo not drawn) [AVI-3715]	54	1	54	–	–	PanDDA run, TFA/DMSO background map: 1-BDC ([2]; soak concentration 10 mM): 0.09; PanDDA run, TFA/DMSO background map: Hit ([2]; soak concentration 10 mM): TRUE
